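Following 48 hours of exposure in 96-well plates, responses at five concentrations were used to interpolate endpoints linearly. At the GI50, growth is halved.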 Calls of active or inactive are those of the source. Cut-off read from the data, not from the text of the source: active = GI50 up to about 1.1 µM and inactive = higher.
How the values were obtained:
Experiment in all cases: inhibition of tumour cell growth, NCI panel, 48 h
[1] = tested on: 786-0
[2] = tested on: A498
[3] = tested on: A549
[4] = tested on: ACHN
[5] = tested on: BT-549
[6] = tested on: CAKI-1
[7] = tested on: CCRF-CEM
[8] = tested on: COLO 205
[9] = tested on: DU-145
[10] = tested on: EKVX
[11] = tested on: HCT-116
[12] = tested on: HCT-15
[13] = tested on: HL-60
[14] = tested on: HOP-62
[15] = tested on: HOP-92
[16] = tested on: HT-29
[17] = tested on: Hs-578T
[18] = tested on: IGROV-1
[19] = tested on: K562
[20] = tested on: KM12
[21] = tested on: LOX IMVI
[22] = tested on: M14
[23] = tested on: MCF7
[24] = tested on: MDA-MB-231
[25] = tested on: MDA-MB-435
[26] = tested on: MDA-N
[27] = tested on: MOLT-4
[28] = tested on: Malme-3M
[29] = tested on: NCI-H226
[30] = tested on: NCI-H23
[31] = tested on: NCI-H460
[32] = tested on: NCI-H522
[33] = tested on: NCI/ADR-RES
[34] = tested on: OVCAR-3
[35] = tested on: OVCAR-4
[36] = tested on: OVCAR-5
[37] = tested on: OVCAR-8
[38] = tested on: PC-3
[39] = tested on: RPMI-8226
[40] = tested on: RXF 393
[41] = tested on: SF-268
[42] = tested on: SF-295
[43] = tested on: SF-539
[44] = tested on: SK-MEL-28
[45] = tested on: SK-MEL-2
[46] = tested on: SK-MEL-5
[47] = tested on: SK-OV-3
[48] = tested on: SN12C
[49] = tested on: SNB-19
[50] = tested on: SNB-75
[51] = tested on: SR
[52] = tested on: SW-620
[53] = tested on: T47D
[54] = tested on: TK-10
[55] = tested on: U-251
[56] = tested on: UACC-257
[57] = tested on: UACC-62
[58] = tested on: UO-31
[59] = tested on: HCC 2998

O=C(O)c1ccc2c(c1C(=O)O)C(=O)OC2(c1ccc(O)cc1)c1ccc(O)cc1
GI50 [1]: > 100 µM (inactive)
GI50 [2]: > 100 µM (inactive)
GI50 [3]: > 100 µM (inactive)
GI50 [4]: > 100 µM (inactive)
GI50 [5]: > 100 µM (inactive)
GI50 [6]: > 100 µM (inactive)
GI50 [7]: > 100 µM (inactive)
GI50 [8]: > 100 µM (inactive)
GI50 [9]: > 100 µM (inactive)
GI50 [10]: > 100 µM (inactive)
GI50 [11]: > 100 µM (inactive)
GI50 [12]: > 100 µM
GI50 [13]: > 100 µM (inactive)
GI50 [14]: > 100 µM (inactive)
GI50 [15]: > 100 µM (inactive)
GI50 [16]: > 100 µM (inactive)
GI50 [17]: > 100 µM (inactive)
GI50 [18]: > 100 µM (inactive)
GI50 [19]: > 100 µM (inactive)
GI50 [20]: > 100 µM (inactive)
GI50 [21]: > 100 µM (inactive)
GI50 [22]: > 100 µM (inactive)
GI50 [23]: > 100 µM (inactive)
GI50 [24]: > 100 µM (inactive)
GI50 [25]: > 100 µM (inactive)
GI50 [26]: > 100 µM (inactive)
GI50 [27]: > 100 µM (inactive)
GI50 [28]: > 100 µM (inactive)
GI50 [29]: > 100 µM (inactive)
GI50 [30]: > 100 µM (inactive)
GI50 [31]: > 100 µM (inactive)
GI50 [32]: > 100 µM (inactive)
GI50 [33]: > 100 µM (inactive)
GI50 [34]: > 100 µM (inactive)
GI50 [35]: > 100 µM (inactive)
GI50 [36]: > 100 µM (inactive)
GI50 [37]: > 100 µM (inactive)
GI50 [38]: > 100 µM (inactive)
GI50 [39]: > 100 µM (inactive)
GI50 [40]: > 100 µM (inactive)
GI50 [41]: > 100 µM (inactive)
GI50 [42]: > 100 µM (inactive)
GI50 [43]: > 100 µM (inactive)
GI50 [44]: > 100 µM (inactive)
GI50 [45]: > 100 µM (inactive)
GI50 [46]: > 100 µM (inactive)
GI50 [47]: > 100 µM (inactive)
GI50 [48]: > 100 µM (inactive)
GI50 [49]: > 100 µM (inactive)
GI50 [50]: > 100 µM (inactive)
GI50 [51]: > 100 µM (inactive)
GI50 [52]: > 100 µM (inactive)
GI50 [53]: > 100 µM (inactive)
GI50 [54]: > 100 µM (inactive)
GI50 [55]: > 100 µM (inactive)
GI50 [56]: > 100 µM (inactive)
GI50 [57]: > 100 µM (inactive)
GI50 [58]: > 100 µM (inactive)

C[N+](C)(C)C(C1=CCCC1=O)c1ccccc1 (stereo not given)
GI50 [1]: 19.7 µM (inactive)
GI50 [2]: > 100 µM (inactive)
GI50 [3]: > 100 µM (inactive)
GI50 [4]: 25.4 µM (inactive)
GI50 [5]: 37.2 µM (inactive)
GI50 [6]: 24.5 µM (inactive)
GI50 [7]: 12.5 µM (inactive)
GI50 [8]: > 100 µM (inactive)
GI50 [9]: 57.5 µM (inactive)
GI50 [10]: > 100 µM (inactive)
GI50 [11]: 16.4 µM (inactive)
GI50 [12]: 20.2 µM
GI50 [13]: 25.8 µM (inactive)
GI50 [14]: 24.8 µM (inactive)
GI50 [15]: 26.4 µM (inactive)
GI50 [16]: 23.5 µM (inactive)
GI50 [17]: 33.4 µM (inactive)
GI50 [18]: 30.3 µM (inactive)
GI50 [19]: 32.4 µM (inactive)
GI50 [20]: 19 µM (inactive)
GI50 [21]: 18.7 µM (inactive)
GI50 [22]: > 100 µM (inactive)
GI50 [23]: 21.8 µM (inactive)
GI50 [24]: 29 µM (inactive)
GI50 [25]: 26.2 µM (inactive)
GI50 [26]: 33.4 µM (inactive)
GI50 [27]: 24.1 µM (inactive)
GI50 [28]: 19.2 µM (inactive)
GI50 [29]: 36.6 µM (inactive)
GI50 [30]: 45.2 µM (inactive)
GI50 [31]: 28.4 µM (inactive)
GI50 [32]: 18.7 µM (inactive)
GI50 [33]: 33.8 µM (inactive)
GI50 [34]: 47.1 µM (inactive)
GI50 [35]: 80.7 µM (inactive)
GI50 [36]: > 100 µM (inactive)
GI50 [37]: 25 µM (inactive)
GI50 [38]: 35.5 µM (inactive)
GI50 [39]: 15.8 µM (inactive)
GI50 [40]: 21 µM (inactive)
GI50 [41]: 18.6 µM (inactive)
GI50 [42]: > 100 µM (inactive)
GI50 [43]: 54.5 µM (inactive)
GI50 [44]: 30.3 µM (inactive)
GI50 [45]: 84.9 µM (inactive)
GI50 [46]: > 100 µM (inactive)
GI50 [47]: > 100 µM (inactive)
GI50 [48]: 20.3 µM (inactive)
GI50 [49]: > 100 µM (inactive)
GI50 [50]: 52.8 µM (inactive)
GI50 [51]: 15.3 µM (inactive)
GI50 [52]: 21.5 µM (inactive)
GI50 [53]: 43.8 µM (inactive)
GI50 [54]: 48.5 µM (inactive)
GI50 [55]: 20.6 µM (inactive)
GI50 [56]: 22.8 µM (inactive)
GI50 [57]: 18.3 µM (inactive)
GI50 [58]: > 100 µM (inactive)

CCOC(=O)/C=C(/C)Nc1nc2c(c(C(=O)OC)c1C#N)CCCC2
GI50 [1]: > 100 µM (inactive)
GI50 [2]: > 100 µM (inactive)
GI50 [3]: > 100 µM (inactive)
GI50 [4]: > 100 µM (inactive)
GI50 [5]: > 100 µM (inactive)
GI50 [6]: > 100 µM (inactive)
GI50 [7]: > 100 µM (inactive)
GI50 [8]: > 100 µM (inactive)
GI50 [9]: > 100 µM (inactive)
GI50 [10]: 86.1 µM (inactive)
GI50 [59]: > 100 µM (inactive)
GI50 [11]: > 100 µM (inactive)
GI50 [12]: > 100 µM
GI50 [13]: 69.3 µM (inactive)
GI50 [14]: > 100 µM (inactive)
GI50 [15]: > 100 µM (inactive)
GI50 [16]: > 100 µM (inactive)
GI50 [17]: > 100 µM (inactive)
GI50 [18]: > 100 µM (inactive)
GI50 [19]: > 100 µM (inactive)
GI50 [20]: > 100 µM (inactive)
GI50 [21]: > 100 µM (inactive)
GI50 [22]: > 100 µM (inactive)
GI50 [23]: > 100 µM (inactive)
GI50 [24]: > 100 µM (inactive)
GI50 [25]: > 100 µM (inactive)
GI50 [26]: > 100 µM (inactive)
GI50 [27]: 63 µM (inactive)
GI50 [28]: > 100 µM (inactive)
GI50 [29]: > 100 µM (inactive)
GI50 [30]: > 100 µM (inactive)
GI50 [31]: > 100 µM (inactive)
GI50 [32]: > 100 µM (inactive)
GI50 [33]: > 100 µM (inactive)
GI50 [35]: 44.7 µM (inactive)
GI50 [36]: > 100 µM (inactive)
GI50 [37]: > 100 µM (inactive)
GI50 [38]: > 100 µM (inactive)
GI50 [39]: > 100 µM (inactive)
GI50 [40]: > 100 µM (inactive)
GI50 [41]: > 100 µM (inactive)
GI50 [42]: > 100 µM (inactive)
GI50 [44]: > 100 µM (inactive)
GI50 [45]: > 100 µM (inactive)
GI50 [46]: > 100 µM (inactive)
GI50 [47]: > 100 µM (inactive)
GI50 [48]: > 100 µM (inactive)
GI50 [49]: > 100 µM (inactive)
GI50 [51]: > 100 µM (inactive)
GI50 [52]: > 100 µM (inactive)
GI50 [53]: > 100 µM (inactive)
GI50 [54]: > 100 µM (inactive)
GI50 [55]: > 100 µM (inactive)
GI50 [56]: > 100 µM (inactive)
GI50 [57]: > 100 µM (inactive)
GI50 [58]: > 100 µM (inactive)

COC(=O)CC[C@@H](C)[C@H]1CC[C@H]2[C@@H]3CC[C@@H]4C[C@H](O)CC[C@]4(C)[C@H]3CC[C@]12C
GI50 [1]: 18.5 µM (inactive)
GI50 [2]: 20.5 µM (inactive)
GI50 [3]: 18.5 µM (inactive)
GI50 [4]: 20.7 µM (inactive)
GI50 [5]: 16.2 µM (inactive)
GI50 [6]: 17.9 µM (inactive)
GI50 [7]: 18.2 µM (inactive)
GI50 [8]: 19.5 µM (inactive)
GI50 [9]: 17.7 µM (inactive)
GI50 [10]: 19.2 µM (inactive)
GI50 [11]: 17.1 µM (inactive)
GI50 [12]: 17.1 µM
GI50 [13]: 15 µM (inactive)
GI50 [14]: 18.4 µM (inactive)
GI50 [15]: 13.8 µM (inactive)
GI50 [16]: 16.6 µM (inactive)
GI50 [17]: 23.1 µM (inactive)
GI50 [18]: 17.2 µM (inactive)
GI50 [19]: 10.7 µM (inactive)
GI50 [20]: 17.5 µM (inactive)
GI50 [21]: 18.7 µM (inactive)
GI50 [22]: 18.5 µM (inactive)
GI50 [23]: 18.3 µM (inactive)
GI50 [24]: 17.8 µM (inactive)
GI50 [25]: 16.7 µM (inactive)
GI50 [26]: 19.1 µM (inactive)
GI50 [27]: 14.5 µM (inactive)
GI50 [28]: 17 µM (inactive)
GI50 [29]: 20.3 µM (inactive)
GI50 [30]: 16.5 µM (inactive)
GI50 [31]: 19.3 µM (inactive)
GI50 [32]: 18.3 µM (inactive)
GI50 [33]: 19 µM (inactive)
GI50 [34]: 18.1 µM (inactive)
GI50 [35]: 19 µM (inactive)
GI50 [36]: 19.8 µM (inactive)
GI50 [37]: 19 µM (inactive)
GI50 [38]: 17.3 µM (inactive)
GI50 [39]: 11.7 µM (inactive)
GI50 [40]: 18.2 µM (inactive)
GI50 [41]: 21.6 µM (inactive)
GI50 [42]: 18.2 µM (inactive)
GI50 [43]: 18.5 µM (inactive)
GI50 [44]: 19 µM (inactive)
GI50 [45]: 18.7 µM (inactive)
GI50 [46]: 16.9 µM (inactive)
GI50 [47]: 20.8 µM (inactive)
GI50 [48]: 18.6 µM (inactive)
GI50 [49]: 21.6 µM (inactive)
GI50 [50]: 19.1 µM (inactive)
GI50 [51]: 14.9 µM (inactive)
GI50 [52]: 29.6 µM (inactive)
GI50 [53]: 19.4 µM (inactive)
GI50 [54]: 20.3 µM (inactive)
GI50 [55]: 20.7 µM (inactive)
GI50 [56]: 14.8 µM (inactive)
GI50 [57]: 17.9 µM (inactive)
GI50 [58]: 19 µM (inactive)
